Experiments:
[1] = target: T1, YfiP (TuaA, tRNA U47 acp transferase A) (Escherichia coli, UniProt Q47319); assay: ITC, […]°C, one-site binding model; also in vitro acp transfer to tRNA
T1 construct: gene tapT; E. coli YfiP with a C-terminal 6xHis-tag
T1 sequence (Q47319 1-232): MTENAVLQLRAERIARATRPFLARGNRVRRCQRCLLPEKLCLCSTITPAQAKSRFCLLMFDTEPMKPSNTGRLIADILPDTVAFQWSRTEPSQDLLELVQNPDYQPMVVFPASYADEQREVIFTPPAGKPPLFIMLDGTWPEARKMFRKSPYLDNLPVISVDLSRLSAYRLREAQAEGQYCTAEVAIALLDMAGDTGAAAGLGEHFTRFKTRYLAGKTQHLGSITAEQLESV

[2] = target: T1, YfiP (TuaA, tRNA U47 acp transferase A); assay: ITC, […]°C, one-site binding model

Compound	Kd [1] [µM]	Kd [2] [µM]
C[S+](CC[C@H](N)C(=O)O)C[C@H]1O[C@@H](n2cnc3c(N)ncnc32)[C@H](O)[C@@H]1O (stereo partly drawn) [SAM, S-adenosyl methionine]	32	
CSC[C@H]1O[C@@H](n2cnc3c(N)ncnc32)[C@H](O)[C@@H]1O [5-MTA, 5′-methyl 5′-deoxythioadenosine]		131
Nc1ncnc2c1ncn2[C@@H]1O[C@H](CSCC[C@H](N)C(=O)O)[C@@H](O)[C@H]1O [SAH, S-adenosylhomocysteine]		84

Reference: publication PMC7026641, “Identification of the 3-amino-3-carboxypropyl (acp) transferase enzyme responsible for acp^3U formation at position 47 in Escherichia coli tRNAs” (Nucleic Acids Research, 2019)
